Results as given in patent US12403132B2, “Methods of treating bone marrow failure syndromes and compositions for use in the same” (The Board of Trustees of the Leland Stanford Junior …, priority 2020, dated 2025).

How the values were obtained:
[1] = tested on: CD235+ erythroblasts; assay: CD235+ erythroblast differentiation of CD34+ HSPCs from DBA patient bone marrow; format: cell-based, human; conditions: DBA patient samples, 5 μM SD208
Protocol: FIG. 8. NLK inhibition increases expansion of erythroid progenitors from human and murine models of DBA. Human cord blood CD34+ progenitors were transduced with lentivirus co-expressing GFP with shRNA against luciferase (shLuc), RPS19 (shRPS19) or RPL11 (shRPL11). After 36 hours cells GFP+ cells were differentiated in erythroid media in the presence or absence of 5 μM SD208 for 15 days. Cells were counted and assessed for cell surface expression of CD235. (a) The percentage of CD235+ cells was multiplied by the cell count and values were compared as a percentage of untreated controls. (b) Normalizing values relative to untreated RPS19-insufficiency progenitors facilitates direct comparison of erythropoiesis between untreated and SD208-treated cultures. (c) Approximately 3000 cells were removed from differentiating treatments at day 6 and NLK activity was assessed. […] Values were expressed as a percentage relative to untreated controls (e) and directly comparing the effect of SD208 on erythropoiesis in ribosomal-insufficiency by expressing values relative to untreated ribosome-insufficient cultures (f). […] After counting the total cell population, the ratio of CD235+ erythroblasts was determined by flow cytometry and number of CD235+ erythroblasts calculated. This was expressed as a percentage of the average number of erythroid cells present in untreated healthy controls. […]

[2] = tested on: miR-26a and other miRNAs (let-7, miR-30, miR-181, miR-199, miR-144); assay: miRNA expression by qRT-PCR in differentiating human CD34+ progenitors; format: cell-based
Protocol: FIG. 14. Metformin-mediated upregulation of miR-26a in human progenitors suppresses NLK expression. (Panel A) Human CD34+ (upper) and murine Lin-Kit+ (lower) progenitors were differentiated for 8 days in the presence or absence of metformin and the levels of indicated miRNAs were assessed by qRT-PCR. (Panel B) K562 cells stably expressing the luciferase gene coupled to the NLK 3′UTR were mock transfected, transfected with indicated miRNA mimetics, or treated with metformin, and cultured in the presence or absence of metformin for 72 hrs. After lysis, luciferase activity was determined and endogenous NLK and GAPDH protein expression was analyzed by Western blot. (Panel C) K562 cells were mock transfected, or transfected with either miR-34 or miR-26 sponges, prior to being left untreated or treated with metformin for 72 hrs. Lysed cells were subjected to luciferase assay and western blotting to examine NLK and GAPDH protein expression. […] Statistics: two-tailed Student's t test, significant *P<0.05
FIG. 15. MiR-26a mimetic substitutes for metformin in improving erythropoiesis in RPS19-insufficiency. (Panel A) Human CD34+ cells were transduced with shRNA against a control (shLuc) or RPS19 (shRPS19) and transfected with a miR-26a mimetic or a mock control. After differentiation in the absence or presence of metformin for 12 days, cells were counted and the percentage of CD235+ erythroblasts determined by flow cytometry. The calculated CD235+ population of each treatment group is represented as a percentage of the untreated control group (upper). In parallel, qRT-PCR was performed to determine mRNA expression of NLK (middle) and miR-26a (lower). (Panel B) Lin-Kit+ progenitors for RPL11+/+ and RPL+/lox mice were mock transfected or transfected with miR-26a mimetic and differentiated for 8 days. Cells were subjected to counting and the percentage of Ter119+ erythroblasts determined (upper) in conjunction with qRT-PCR examining NLK (middle) and miR-26a (lower) mRNA expression. […] Statistics: two-tailed Student's t test, significant *P<0.05
MessengerRNA was quantified as described (5). MicroRNA was quantified using TaqMan® Small RNA Assays (Applied Biosystems) as per manufacturer's directions and normalized to snoRNA.

SMILES | mean increase in erythroid expansion [1] | miR-26a level ([2]; RPS19-insufficiency) | miR-26a level ([2]; control) | upregulation of miR-26a ([2]; human CD34+ progenitors in erythroid media, metformin, 8 days) | expression of other miRNA species (let-7, miR-30, miR-181, miR-199, miR-144) ([2]; human CD34+ progenitors, metformin)
Fc1ccc(Cl)cc1-c1nc(Nc2ccncc2)c2nccnc2n1 [SD208] | 2.11 fold |  |  |  | 
CN(C)C(=N)N=C(N)N [metformin] |  | 2.5 fold | 2.4 fold | 2.4 fold | did not alter
